In ChEMBL document CHEMBL3046546, “Synthesis and biological evaluation of a novel anti-malarial lead” (Med Chem Res, 2011):
Calls of active or inactive are those of the source. The calls are words filed in the database; no cut-off is given here.

Columns and labels:
Assay type in all cases: functional, organism-based
Leishmania donovani = assay: Antileishmanial activity against promastigotes of Leishmania donovani expressing firefly luciferase after 72 hr by luciferase assay
Plasmodium falciparum [1] = assay: Antimalarial activity against chloroquine-resistant Plasmodium falciparum W2 after 72 hr by […] assay; settings: W2, 72 h
Plasmodium falciparum [2] = assay: Antimalarial activity against chloroquine-sensitive Plasmodium falciparum D6 after 72 hr by […] assay; settings: D6, 72 h
[3] = test system: Mycobacterium intracellulare; assay: Antimicrobial activity against Mycobacterium intracellulare
Staphylococcus aureus = assay: Antimicrobial activity against methicillin-resistant Staphylococcus aureus
Aspergillus fumigatus = assay: Antimicrobial activity against Aspergillus fumigatus
Escherichia coli = assay: Antimicrobial activity against Escherichia coli
Cryptococcus neoformans = assay: Antimicrobial activity against Cryptococcus neoformans
Candida albicans = assay: Antimicrobial activity against Candida albicans

| IC90 (Leishmania donovani) | SMILES | IC50 (Leishmania donovani) | IC50 (Plasmodium falciparum [1]) | IC50 (Plasmodium falciparum [2]) | Activity [3] | Activity (Staphylococcus aureus) | Activity (Aspergillus fumigatus) | Activity (Escherichia coli) | Activity (Cryptococcus neoformans) | Activity (Candida albicans) |
| --- | --- | --- | --- | --- | --- | --- | --- | --- | --- | --- |
| 134 µM | CCc1ccc(Cc2cc(N)cc(N)c2)cc1 | 69 µM | – | – | – | – | – | – | – | – |
| – | CCOC(=O)Cc1ccc(Cc2cn(Cc3ccccc3)cn2)cc1 | – | 6.3 µM | 8 µM | – | – | – | – | – | – |
| 2.5 µM | C[C@@H]1[C@H](O)[C@@H](C)/C=C/C=C/C=C/C=C/C=C/C=C/C=C/[C@H](O[C@@H]2O[C@H](C)[C@@H](O)[C@H](N)[C@@H]2O)C[C@@H]2O[C@](O)(C[C@@H](O)C[C@@H](O)[C@H](O)CC[C@@H](O)C[C@@H](O)CC(=O)O[C@H]1C)C[C@H](O)[C@H]2C(=O)O [AMPHOTERICIN B] | – | – | – | – | – | – | – | – | – |
| – | CCOC(=O)C(=O)Nc1cc(Cc2ccc(CC)cc2)cc(NC(=O)Cc2ccc(Cc3cn(Cc4ccccc4)cn3)cc2)c1 | 41 µM | 5.5 µM | 6.5 µM | inactive | inactive | inactive | inactive | inactive | inactive |
